{"source": "paper PMC13489962", "about": "“Small-molecule modulation of β-arrestins” (Nature, 2026)", "key": {"[1]": {"biological_target": "T1, βARR1–JNK3 interaction (Rattus norvegicus, UniProt P29066)", "T1 construct": "made in house", "test": "Flag pulldown of βARR1 with JNK3", "assay_type": "biochemical", "details": "20-fold molar excess of compound, 30 min", "description": "To assess the effects of the compounds on βARR1 interactions with its effector proteins SRC and JNK3, βARR1–Flag (5 μM) was incubated with a 20-fold molar excess of Cmpd-5, Cmpd-46 or Cmpd-64 for 30 min at room temperature. Subsequently, 15 μM of SRC or JNK3 was added. To evaluate compound effects on βARR1–ERK2 binding, βARR1 (15 μM) was pre-incubated with a 20-fold molar excess of Cmpd-5, Cmpd-46 or Cmpd-64 for 30 min at room temperature, followed by the addition of 5 μM ERK2–Flag. Afterward, 50 μl of anti-Flag M2 affinity gel (Millipore Sigma) was added, and the mixtures were incubated for 1 h at room temperature with rotation. The resin was then collected by centrifugation and washed 3 times with 1 ml of 20 mM HEPES (pH 7.5), 100 mM NaCl. Bound proteins were eluted using 0.2 mg ml^−1 Flag peptide in 20 mM HEPES (pH 7.5), 100 mM NaCl, mixed with Laemmli sample buffer (Bio-Rad), and analysed by SDS–PAGE followed by western blotting. Detection was performed using monoclonal anti-Flag M2-peroxidase (HRP) antibody (1:2,000, Sigma-Aldrich A8592, RRID:AB_439702) for βARR1–Flag and ERK2–Flag; polyclonal A1CT antibody[76] (1:5,000) for βARR1; anti-SRC monoclonal antibody (1:10,000, EMD Millipore 05-184, RRID:AB_2302631) for SRC; and anti-JNK3 monoclonal antibody (1:5,000, Cell Signaling 2305, RRID:AB_2281744) for JNK3. Western blot images were taken using Bio-Rad ChemiDoc system and the densitometry analysis was performed by ImageLab v6.1 and statistical differences were determined by one-way ANOVA with Dunnett’s post hoc test in GraphPad Prism software."}, "[2]": {"biological_target": "T2, βARR1 (Rattus norvegicus, UniProt P29066)", "T2 construct": "βARR1 or βARR2 construct, with their C terminus truncated (at amino acid 393 or 394, respectively); GST (pGEX4T1) (N, cleaved yes); made in house; host or cells: E. coli BL21 (DE3) pLysS", "T2 sequence (P29066 1-393)": "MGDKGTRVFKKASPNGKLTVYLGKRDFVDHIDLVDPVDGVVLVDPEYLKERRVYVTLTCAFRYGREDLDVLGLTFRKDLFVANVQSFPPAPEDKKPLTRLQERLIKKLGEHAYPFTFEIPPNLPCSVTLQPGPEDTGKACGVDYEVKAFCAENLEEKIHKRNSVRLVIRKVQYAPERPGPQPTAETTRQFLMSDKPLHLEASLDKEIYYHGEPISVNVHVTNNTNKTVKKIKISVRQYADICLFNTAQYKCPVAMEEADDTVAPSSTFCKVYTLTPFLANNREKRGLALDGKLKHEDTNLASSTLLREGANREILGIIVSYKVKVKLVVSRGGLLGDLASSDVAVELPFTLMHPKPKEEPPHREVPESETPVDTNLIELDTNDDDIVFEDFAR", "test": "ITC binding to βARR1", "details": "for Kd: one-site model", "description": "The expression and purification of β-arrestins have been described previously[44],[62]–[64]. In brief, E. coli BL21 (DE3) pLysS cells (New England Biolabs: C2527I) carrying pGEX4T1-Rattus norvegicus βARR1 or βARR2 construct, with their C terminus truncated (at amino acid 393 or 394, respectively), were cultured in Terrific Broth (Teknova) medium at 37 °C. After OD600 reached 0.6–0.8, the cells were induced with 0.1 mM isopropyl-β-D-thiogalactopyranoside (IPTG) at 18 °C overnight. Bacteria were collected by centrifugation (4,000 rpm), and cell pellets were resuspended in lysis buffer (20 mM HEPES, pH 8, 150 mM NaCl, 10% glycerol, 1 mM EDTA, 0.2 mM dithiothreitol (DTT), 1 mM phenylmethylsulfonyl fluoride, and 1 mM benzamidine) at 4 °C for 1 h. Cell suspensions were sonicated, centrifuged (14,000 rpm, 30 min, 4 °C), and the supernatant was loaded onto pre-equilibrated glutathione–agarose resin (GoldBio). After 3 h of binding at 4 °C, the beads were washed, and thrombin was added for overnight cleavage. The proteins were further purified by anion exchange chromatography followed by size-exclusion chromatography using a Superdex 200 Increase 10/300 GL column on an ÄKTA FPLC system (GE Healthcare). Eluted fractions were analysed by SDS–PAGE, pooled, concentrated using 30 kDa MWCO Amicon Ultra-15 Centrifugal Filter devices, flash-frozen in liquid nitrogen, and stored in aliquots at −80 °C. The same rat βARR1 constructs with mutations (L129A, L129S, L129G, P131A, P133A, E134A, D135A, K138A, C140A, Y249A, C251A, E283A, K284A and R285A) were generated and purified in a similar manner. Recombinant Gα subunits (Gαs, Gαq and Gαi) were purified as GST fusion proteins using glutathione–agarose affinity chromatography as previously described. The heterotrimeric Gs protein complex, composed of Gαs, Gβ1 and Gγ2 subunits, was expressed in Sf9 cells using the baculovirus expression system and purified as previously described. M2R expression, purification and reconstitution into high-density lipoprotein (HDL) particles were performed as previously described. ERK2, SRC, p38α and JNK3 kinases were expressed and purified using previously established protocols[6],[16]. Protein concentrations for each protein were determined by ultraviolet absorption at 280 nm and extinction coefficients estimated using the ExPASy ProtParam tool[67].\nITC measurements were performed on a MicroCal iTC200 system at 25 °C. Prior to ITC experiments, all proteins (βARR1, βARR2 or βARR1 mutants) were extensively dialysed against 20 mM HEPES (pH 7.4), 100 mM NaCl, and 3 μM TCEP. Protein concentrations were determined by spectrophotometry at 280 nm, using extinction coefficients calculated from each protein sequence via the ProtParam program. The dialysis buffer was used to dilute DMSO stock solutions of β-arrestin small-molecule modulators to their final concentrations for measurements. For each ITC experiment, β-arrestin modulators (Cmpd-5 at 350 μM, Cmpd-46 at 450 μM, and Cmpd-64 at 450 μM) were loaded into the syringe and titrated into the calorimetric cell containing βARR1, βARR1 mutants or βARR2 (at about 30–40 μM, depending on the protein and experiment). Additional ITC experiments were also performed using purified GST-fused Gα subunits (Gαs, Gαq and Gαi; about 30 μM) and Gαiβγ heterotrimer (about 30 μM). Gα subunits were prepared in the same buffer (20 mM HEPES, pH 7.4, 100 mM NaCl, 3 μM TCEP), whereas the Gαiβγ heterotrimer was maintained in buffer supplemented with 0.05% DDM and 10 μM GDP, with matched DMSO carrier conditions. Modulators (300 μM) or corresponding DMSO controls were loaded and titrated as described above. The reference cell was filled with distilled water. In all experiments, the titration sequence typically consisted of an initial 0.4 μl injection, followed by 19 injections of 2 μl each, with a 180-s interval between injections to allow thermal power to return to baseline. […]"}}, "note": "“And” between values parts separate entries of the source, which are not always exact repeats. Identical values can stand only once."}
{"smiles": "C=C1C(=O)[C@]23[C@H](O)[C@H]1CC[C@H]2[C@@]12CO[C@]3(O)[C@@H](O)[C@@H]1C(C)(C)CC[C@@H]2O", "note": "[Cmpd-5, (1S,4aR,5S,6S,6aR,9S,11aS,11bS,14R)-1,5,6,14-tetrahydroxy−4,4-dimethyl-8-methylenedecahydro-1H-6,11b-(epoxymethano)-6a,9-methanocyclohepta[a]naphthalen-7(8H)-one]", "values": [{"measurement": "effect on βARR1 binding to JNK3", "setting": "[1]", "result": "minimal change"}, {"measurement": "stoichiometry N, βARR1", "setting": "[2]", "result": 1}, {"measurement": "ΔH, βARR1 wild type", "setting": "[2]; 25 °C", "result": -13.4, "unit": "kcal/mol"}, {"measurement": "Kd", "setting": "[2]; 25 °C", "result": "~400 nM and 362 nM"}]}
{"smiles": "C=C1C(=O)OC2CC3(C)OC3CCC(C)=CC(OC(C)=O)C12", "note": "(stereo not shown) [Cmpd-64, (Z)-4,10a-dimethyl-7-methylene-8-oxo-1a,2,3,6,6a,7,8,9a,10,10a decahydrooxireno[2’,3’:8,9]cyclodeca[1,2-b]furan-6-yl acetate]", "values": [{"measurement": "effect on βARR1 binding to JNK3", "setting": "[1]", "result": "minimal change"}, {"measurement": "stoichiometry N, βARR1", "setting": "[2]", "result": 0.73}, {"measurement": "Kd", "setting": "[2]; 25 °C", "result": "1420 ± 200", "unit": "nM"}]}
{"smiles": "C=C1C(=O)C2=CC1CCC(=O)C1(C)CCC(OCC)C(C)(C)C1CC2O", "note": "(stereo not shown) [Cmpd-46, (Z)-3-ethoxy-6-hydroxy-4,4,13a-trimethyl-9-methylene-1,2,3,4,4a,5,6,9,10,11,12,13a-dodecahydro-7,10-(metheno)benzo[11]annulene-8,13-dione]", "values": [{"measurement": "effect on βARR1 binding to JNK3", "setting": "[1]", "result": "minimal change"}, {"measurement": "stoichiometry N, βARR1", "setting": "[2]", "result": 1.2}, {"measurement": "Kd", "setting": "[2]; 25 °C", "result": "1340 ± 740", "unit": "nM"}]}
